Article PMC10269622, “Blapstin, a Diapause-Specific Peptide-Like Peptide from the Chinese Medicinal Beetle Blaps rhynchopetera, Has Antifungal Function” (Microbiology Spectrum, 2023)
Bridge positions count the residues as written; N and C are the ends. Ends that are not written are not given here.

Experiments:
[1] = tested on: Escherichia coli ATCC 8739; experiment: MIC, broth double dilution; assay type: cell-based; details: 96-well plate, 37°C, 16 h, absorbance at 600 nm, mean of three independent experiments, ND = no bacteriostatic activity
Procedure: (§1) The standard strain of C. albicans (ATCC 10231), three clinically isolated antibiotic-resistant strains (C. albicans 0065, C. albicans 0063, and C. albicans 6), E. coli (ATCC 8739), and S. aureus (ATCC 6538) were obtained from Kunming Medical University. T. rubrum was purchased from BeNa Culture Collection (BNCC, CAS no. 340195). Different strains of C. albicans, E. coli, and S. aureus were cultured with shaking at 37°C in YM medium and Luria-Bertani (LB) medium. T. rubrum was cultured at 28°C in potato dextrose agar (PDA) medium according to the manufacturer’s instructions.
(§2) According to CLSI protocols, the MIC is determined as a point where there is “zero detectable growth,” The MIC of blapstin against different fungal strains was determined by use of the double dilution method, namely, broth dilution determination. In brief, the different strains were grown in their corresponding media at 28°C or 37°C until they reached the exponential growth phase. Colistin E and fluconazole were used as positive controls. Blapstin was diluted to various concentrations in sterile saline: 100 μL of sterile saline was added to the second well of a sterile 96-well plate, and then 100 μL of blapstin was added to the first and second wells. The solution from the second well was double-diluted with sterile saline until the 11th well, from which 100 μL was removed. In the 12th well, no blapstin was added, and sterile saline was used as a negative control. Afterward, 100 μL of the diluted microbial solution was added to each well, followed by incubation at 37°C for 16 h. To assess the antifungal activity of blapstin against the T. rubrum strain, the spore germination rates were first determined microscopically with a hemocytometer. T. rubrum was diluted with normal saline to 1 × 10^5 CFU/mL and then incubated with various concentrations of blapstin at 28°C for 16 h. The absorbance at 600 nm was measured by a microplate reader (Epoch Etock; Biotek, USA) to estimate the inhibition of bacteria and fungi by blapstin.

[2] = tested on: Staphylococcus aureus ATCC 6538; experiment: MIC, broth double dilution; assay type: cell-based; details: 96-well plate, 37°C, 16 h, absorbance at 600 nm, mean of three independent experiments, ND = no bacteriostatic activity
Procedure: as §1, §2

[3] = tested on: C. albicans ATCC 10231; experiment: Cryo-SEM membrane morphology; assay type: cell-based, Candida albicans; details: 1× MIC, 10 μL on filter paper disk, YM solid medium
Procedure: Cryo-SEM was used to examine membrane morphology as previously described with minor modifications ([65]). C. albicans ATCC 10231 was cultured in a nutrient YM solid medium. Sterilized 5-mm-diameter filter paper disks were placed on the surface of the medium, and 10 μL (1× MIC) of blapstin was added to the disks. Sterile 0.9% NaCl was used as the blank control. Fungi treated with blapstin were observed using cryo-SEM with a Quorum pp3010t system (Sigma 300; Carl Zeiss, Germany).

[4] = tested on: C. albicans ATCC 10231; experiment: Intracellular ROS burst, H2DCFDA probe; assay type: cell-based, Candida albicans; details: 1×, 8×, 32× MIC, 37°C, 30 min
Procedure: H2DCFDA is a cell-permeable probe for detecting intracellular ROS ([72]). C. albicans ATCC 10231 was cultured in YM medium to logarithmic stage in a constant-temperature shaking machine at 37°C, centrifuged at 1,000 × g for 5 min to remove the supernatant, and washed with normal saline three times, and then the fungal solution was diluted to an OD600 of 0.1. Different concentrations of blapstin (1× MIC, 8× MIC, 32× MIC) were added to diluted fungal suspension and incubated at 37°C for 30 min. H2O2 at 0.1 mM was used as the positive control, and 0.9% NaCl was used as the negative control. After incubation, the suspension was centrifuged at 1,000 × g for 5 min to discard the supernatant and leave the thallus precipitation. The H2DCFDA dye was dissolved with DMSO and diluted with 0.9% NaCl containing 15% DMSO to achieve a final concentration of 10 μM. The thallus precipitation was mixed with 1 mL of a […] H2DCFDA working solution to each tube, incubated at 37°C for 30 min, and then centrifuged at 1,000 × g for 5 min to remove the supernatant. […] One milliliter of 0.9% NaCl was added to each tube and analyzed with a multifunctional fluorescent enzyme labeling instrument (SynergyH1; Biotek, USA). The excitation/emission wavelengths were set at […], and the ROS burst was monitored. The experiment was repeated three times, with three biological replicates at a time.

VRVGPCDQVCSRTNPEKDECCRAHGHSGHSSCYGGRMNCYG (disulfide 6-21, 10-32, 20-39 (inferred)) [Blapstin]
MIC [1]: did not affect
MIC [2]: did not affect
Membrane morphology under cryo-SEM [3]: membrane shrinkage and disruption of the plasma membrane
Change in ROS fluorescence in C. albicans [4]: increased
